In ChEMBL document CHEMBL4419166, “Use of small molecule inhibitors to klf10 for modulation of t regulatory cells and cancer immunotherapy” (2017):
Calls of active or inactive are those of the source. The rule behind the calls is not given here.

Experiments:
[1] = target: T1, Krueppel-like factor 10 (Mus musculus) (UniProt O89091); assay: Inhibition of KLF10 in mouse CD4+CD25- T cells assessed as reduction in checkpoint markers on iTregs by measuring CTLA4 expression level; assay type: cell-based; set-up: scale not given: the % may be the effect or the level left
T1 sequence (whole entry): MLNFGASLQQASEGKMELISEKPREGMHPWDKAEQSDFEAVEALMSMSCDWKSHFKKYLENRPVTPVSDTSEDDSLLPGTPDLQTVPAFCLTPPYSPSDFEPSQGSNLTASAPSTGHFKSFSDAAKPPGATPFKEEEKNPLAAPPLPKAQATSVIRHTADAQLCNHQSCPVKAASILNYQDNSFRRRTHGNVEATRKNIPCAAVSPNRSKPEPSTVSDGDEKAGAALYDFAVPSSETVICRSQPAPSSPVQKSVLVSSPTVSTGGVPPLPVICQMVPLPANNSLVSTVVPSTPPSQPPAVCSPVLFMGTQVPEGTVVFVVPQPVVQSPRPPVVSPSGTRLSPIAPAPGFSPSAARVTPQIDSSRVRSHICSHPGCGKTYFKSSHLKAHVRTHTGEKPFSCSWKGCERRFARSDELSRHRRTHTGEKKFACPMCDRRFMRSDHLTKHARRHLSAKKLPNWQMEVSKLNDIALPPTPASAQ

[2] = target: Krueppel-like factor 1 (Homo sapiens) (UniProt Q13351); assay: Inhibition of GST-tagged KLF1 (unknown origin) binding to double-stranded DNA at 40 uM by electromobility gel shift assay relative to control
[3] = target: T1, Krueppel-like factor 10 (Mus musculus); assay: Inhibition of KLF10 in mouse CD4+CD25- T cells assessed as reduction in Foxp3 mRNA expression incubated for 5 days by real time qPCR analysis relative to control; assay type: cell-based
[4] = target: T1, Krueppel-like factor 10 (Mus musculus); assay: Inhibition of KLF10 in mouse CD4+CD25- T cells assessed as reduction in checkpoint markers on iTregs by measuring PDL1 expression level; assay type: cell-based; set-up: scale not given: the % may be the effect or the level left
[5] = target: T1, Krueppel-like factor 10 (Mus musculus); assay: Inhibition of KLF10 in mouse CD4+CD25- T cells assessed as reduction in checkpoint markers on iTregs by measuring PD1 expression level; assay type: cell-based; set-up: scale not given: the % may be the effect or the level left
[6] = target: Krueppel-like factor 1 (Homo sapiens) (UniProt Q13351); assay: Inhibition of GST-tagged KLF1 (unknown origin) binding to double-stranded DNA at 8 uM by electromobility gel shift assay relative to control
B16 [7] = assay: Antitumor activity against mouse B16 cells implanted in mouse assessed as reduction tumor volume at 200 mg/kg, ip dosed on day 3 to 7; assay type: functional, organism-based
Mus musculus [8] = assay: Suppression of TGF-beta1 expression in CD4+ T cells isolated from mouse B16 cells implanted mouse at 25 to 100 mg/kg, ip; assay type: functional, organism-based
B16 [9] = assay: Antitumor activity against mouse B16cells implanted in mouse assessed as reduction tumor volume at 20 mg/kg dosed via local injection on day 0 and measured from day 4 to day 13; assay type: functional, organism-based
Mus musculus [10] = assay: Antitumor activity against mouse TRAMP-C2 cells implanted in mouse assessed as reduction tumor volume at 200 mg/kg, ip dosed on day 3 to 7; assay type: functional, organism-based
[11] = target: T1, Krueppel-like factor 10 (Mus musculus); assay: Inhibition of KLF10 in mouse CD4+CD25- T cells assessed as reduction in PD1 mRNA expression at 50 uM incubated for 5 days by real time qPCR analysis relative to control; assay type: cell-based
[12] = target: T1, Krueppel-like factor 10 (Mus musculus); assay: Inhibition of KLF10 in mouse CD4+CD25- T cells assessed as reduction in Foxp3 mRNA expression at 50 uM incubated for 5 days by real time qPCR analysis relative to control; assay type: cell-based

Krueppel-like factor 1 (Homo sapiens), sequence (Q13351 whole entry): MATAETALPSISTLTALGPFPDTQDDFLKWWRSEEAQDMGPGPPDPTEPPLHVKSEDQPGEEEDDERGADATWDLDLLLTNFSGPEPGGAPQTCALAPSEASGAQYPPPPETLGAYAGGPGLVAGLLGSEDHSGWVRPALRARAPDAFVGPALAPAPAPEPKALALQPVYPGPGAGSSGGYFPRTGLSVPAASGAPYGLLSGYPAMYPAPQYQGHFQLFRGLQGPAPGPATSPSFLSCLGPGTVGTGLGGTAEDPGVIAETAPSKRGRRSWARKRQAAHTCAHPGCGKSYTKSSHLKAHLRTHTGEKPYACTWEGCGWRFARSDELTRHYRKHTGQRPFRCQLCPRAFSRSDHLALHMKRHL

Row | SMILES | Activity [1] | inhibition [2] | inhibition [3] | Activity [4] | Activity [5] | inhibition [6] | inhibition (B16 [7]) | inhibition (Mus musculus [8]) | Activity (B16 [9]) | inhibition (Mus musculus [10]) | inhibition [11] | inhibition [12]
1 | Cc1ccc(OCC(=O)c2cc(C)c(O)cc2O)cc1 | 88.7% | inactive | Active | 43.7% | 49.4% | inactive | Active | Active | Active | Active |  | 
2 | COc1ccc(C(=O)COC(=O)c2cc(C)ccc2O)cc1 | 92% | inactive | Active | 53.1% | 47.6% | inactive |  |  |  |  | Active | 82.5%
